According to patent publication US6566355B1 (Hoffmann-La Roche Inc., priority 1991, dated 2003):
Structures can show the parent of a compound that is named as a salt. Where two headings read alike, the source gives them in different places.

Columns and labels:
β-lactamase = target: T1, β-lactamase (Citrobacter freundii, UniProt P05193); test: biochemical
T1 construct: Various β-lactamases can be isolated from penicillin- or cephalosporin-resistant bacterial strains such as; endogenous in cells; host or cells: Citrobacter freundii 1203 (enzyme purified from the crude cell extract, after ampicillin induction when necessary)
T1 sequence (P05193 21-381): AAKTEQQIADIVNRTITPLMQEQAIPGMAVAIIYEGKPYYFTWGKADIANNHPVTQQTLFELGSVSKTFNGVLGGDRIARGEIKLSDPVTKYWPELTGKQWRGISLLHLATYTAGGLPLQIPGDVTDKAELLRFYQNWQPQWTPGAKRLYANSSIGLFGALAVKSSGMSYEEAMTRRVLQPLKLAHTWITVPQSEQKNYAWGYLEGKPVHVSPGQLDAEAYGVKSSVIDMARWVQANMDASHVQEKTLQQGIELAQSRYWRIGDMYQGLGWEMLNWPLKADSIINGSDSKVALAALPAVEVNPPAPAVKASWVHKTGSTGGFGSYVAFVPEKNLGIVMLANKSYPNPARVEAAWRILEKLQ
Summary of the method: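 β-lactamase from C. freundii 1203 crude extract (French press, 20 mM Tris-HCl pH 7.0) assayed with 0.1 mM nitrocefin in 50 mM phosphate pH 7.0 at 37° C, enzyme set to ΔA/min about 0.1, read at 482 nm. IC50 is inhibitor concentration giving 50% inhibition of nitrocefin cleavage, determined graphically.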

Citrobacter freundii = test: MIC in vitro of a 1:4 combination of ceftriaxone with a compound of formula I (test D); type: cell-based; conditions: 1:4 combination of ceftriaxone with the compound
Procedure: D. Determination of the β-lactamase-inhibiting activity by combination of a compound of general formula I with ceftriaxone
The minimum inhibitory concentration in vitro (MIC in μg/ml) of a 1:4 combination of ceftriaxone with a compound of formula I against Citrobacter freundii is measured and compiled in Table 2 hereinafter.

[1] = IC 50 nM, isolated β-lactamase of Citrobacter freundii, substrate nitrocefin 0.1 mM, 15 minutes pre-incubation with inhibitor, 37° C., pH 7.0
[2] = isolated β-lactamase of Citrobacter freundii, substrate nitrocefin 0.1 mM, 15 minutes pre-incubation with inhibitor, 37° C., pH 7.0, read-out: IC 50 nM

Question: Which results are given for `O=C(OCc1cccs1)N1CC[C@@H]2[C@H]1C(=O)N2S(=O)(=O)[O-].[Na+]` [17(n), (1S,5R)-7-Oxo-2-(thien-2-yl-methoxycarbonyl)-2,6-diazabicyclo[3.2.0]heptane-6-sulphonic acid sodium salt]?
Answer: IC50 (β-lactamase; [1]): 272 nM; MIC (Citrobacter freundii): 16 µg/mL

Question: How did the IC50 (β-lactamase) turn out when `O=C1SCC[C@H]1NC(=O)N1CC[C@@H]2[C@H]1C(=O)N2S(=O)(=O)O` [17(u), (1S,5R)-7-Oxo-2-(R)-(2-oxo-3-tetrahydrothienyl-carbamoyl)-2,6-diazabicyclo[3.2.0]heptane-6-sulphonic acid sodium salt] was run?
Answer: 62 nM

Question: And the “MIC” value (Citrobacter freundii)?
Answer: 2 µg/mL

Question: Which IC50 (β-lactamase; [1]) does the source give for `Cn1nnnc1CNC(=O)N1CC[C@@H]2[C@H]1C(=O)N2S(=O)(=O)[O-].[Na+]` [17(z), (1S,5R) -2-[1-Methyl-1H-tetrazol-5-ylmethylcarbamoyl]-7-oxo-2,6-diazabicyclo[3.2.0]heptane-6-sulfonic acid sodium salt] here?
Answer: 98 nM

Question: And the “MIC” value (Citrobacter freundii)?
Answer: 1 µg/mL

Question: Which IC50 (β-lactamase; [1]) does the source give for `Cc1cc(=O)oc2cc(OCC(=O)N3CC[C@@H]4[C@H]3C(=O)N4S(=O)(=O)[O-])ccc12.[Na+]` [23(a), (1S,5R)-2-(4-Methyl-2-oxo-2H-benzopyran-7-yloxyacetyl)-7-oxo-2,6-diazabicyclo[3.2.0]heptane-6-sulfonic acid sodium salt] here?
Answer: 97 nM

Question: And the “MIC” value (Citrobacter freundii)?
Answer: 16 µg/mL

Question: `Cn1cnnc1SCC(=O)N1CC[C@@H]2[C@H]1C(=O)N2S(=O)(=O)[O-].[Na+]` [23(b), (1S,5R)-2-(4-Methyl-4H-1,2,4-triazol-3-ylsulfanylacetyl)-7-oxo-2,6-diazabicyclo[3.2.0]heptane-6-sulfonic acid sodium salt] was tested. Which IC50 (β-lactamase; [1]) did it give?
Answer: 50 nM

Question: What about the “MIC” value (Citrobacter freundii) of the same compound?
Answer: 0.5 µg/mL

Question: Which results are given for `Cn1cccc1/C=C/C(=O)N1CC[C@@H]2[C@H]1C(=O)N2S(=O)(=O)[O-].[Na+]` [23(c), (1S,5R)-2-[(E)-3-(1-Methyl-pyrrol-2-yl)acryloyl]-7-oxo-2,6-diazabicyclo[3.2.0]heptane-6-sulfonic acid sodium salt]?
Answer: IC50 (β-lactamase; [1]): 420 nM; MIC (Citrobacter freundii): 8 µg/mL

Question: For `Cn1ccnc1SCC(=O)N1CC[C@@H]2[C@H]1C(=O)N2S(=O)(=O)[O-].[Na+]` [23(d), (1S,5R)-2-(1-Methyl-imidazol-2-ylsulfanylacetyl)-7-oxo-2,6-diazabicyclo[3.2.0]heptane-6-sulfonic acid sodium salt], which IC50 (β-lactamase; [1]) is on record?
Answer: 283 nM

Question: And the “MIC” value (Citrobacter freundii)?
Answer: 1 µg/mL

Question: What does the source list for `O=C(/C=C/c1cc[nH]n1)N1CC[C@@H]2[C@H]1C(=O)N2S(=O)(=O)[O-].[Na+]` [23(e), (1S,5R)-7-Oxo-2-[(E)-3-pyrazol-3-yl-acryloyl]-2,6-diazabicyclo[3.2.0]heptane-6-sulfonic acid sodium salt]?
Answer: IC50 (β-lactamase; [1]): 138 nM; MIC (Citrobacter freundii): 1 µg/mL

Question: With `O=C(CNc1cc[nH]c(=O)n1)N1CC[C@@H]2[C@H]1C(=O)N2S(=O)(=O)O` [23(f), (1S,5R)-7-Oxo-(2-oxo-1,2-dihydro-pyrimidin-4-ylaminoacctyl)-2,6-diazabicyclo[3.2.0]heptane-6-sulfonic acid sodium salt] as the compound, how does the IC50 (β-lactamase) read?
Answer: 30 nM

Question: What about the “MIC” value (Citrobacter freundii) of the same compound?
Answer: 0.5 µg/mL

Question: With `Nc1nc(SCC(=O)N2CC[C@@H]3[C@H]2C(=O)N3S(=O)(=O)[O-])n(C(=O)OCc2ccccc2)n1.[Na+]` [23(g), (1S,5R)-2-(5-Amino-2-benzyloxycarbonyl-2H-1,2,4-triazol-3-ylsulfanyl-acetyl)-7-oxo-2,6-diazabicyclo[3.2.0]heptane-6-sulfonic acid sodium salt] as the compound, how does the IC50 (β-lactamase; [1]) read?
Answer: 280 nM

Question: What about the “MIC” value (Citrobacter freundii) of the same compound?
Answer: 2 µg/mL

Question: What does the source list for `CC(C)=C[C@@H]1[C@@H](C(=O)N2CC[C@@H]3[C@H]2C(=O)N3S(=O)(=O)[O-])C1(C)C.[Na+]` [23(h), (1S,5R)-2-[(1R,3R)-2,2-Dimethyl-3-(2-methyl-propenyl)-cyclopropylcarbonyl]7-oxo-2,6-diazabicyclo[3.2.0]heptane-6-sulfonic acid sodium salt]?
Answer: IC50 (β-lactamase; [1]): 920 nM; MIC (Citrobacter freundii): 16 µg/mL

Question: Which IC50 (β-lactamase; [1]) does the source give for `O=C(Nc1nnc(SCC(=O)N2CC[C@@H]3[C@H]2C(=O)N3S(=O)(=O)[O-])s1)OCc1ccccc1.[Na+]` [23(i), (1S,5R)-2-(5-Benzyloxycarbonylamino-1,3,4-thiadiazol-2-ylsulfanyl-acetyl)-7-oxo-2,6-diazabicyclo[3.2.0]heptane-6-sulfonic acid sodium salt] here?
Answer: 70 nM

Question: What about the “MIC” value (Citrobacter freundii) of the same compound?
Answer: 1 µg/mL

Question: Which IC50 (β-lactamase; [1]) does the source give for `O=C(C=Cc1cncn1S(=O)(=O)[O-])N1CC[C@@H]2[C@H]1C(=O)N2S(=O)(=O)[O-].[Na+].[Na+]` [23(l), (1S,5R)-7-Oxo-2-[3-(1-sulfo-imidazol-5-yl)acryloyl]-2,6-diazabicyclo[3.2.0]heptane-6-sulfonic acid sodium salt] here?
Answer: 5 nM

Question: What about the “MIC” value (Citrobacter freundii) of the same compound?
Answer: 2 µg/mL

Question: Which IC50 (β-lactamase) does the source give for `O=C(OCc1ccccc1)N1CC[C@@H]2[C@H]1C(=O)N2S(=O)(=O)O` [Example 1(a), Benzyl (1S,5)-7-oxo-6-sulpho-2,6-diazabicyclo[3.2.0]heptane 2-carboxylate sodium salt] here?
Answer: 100 nM

Question: And the “MIC” value (Citrobacter freundii)?
Answer: 8 µg/mL

Question: Which IC50 (β-lactamase; [1]) does the source give for `O=C(Nc1ccccc1)N1CC[C@@H]2[C@H]1C(=O)N2S(=O)(=O)[O-].[Na+]` [Example 2, (1S,5R)-7-Oxo-2-(phenylcarbamoyl)-2,6-diazabicyclo[3.2.0]heptane-6-sulphonic acid sodium salt] here?
Answer: 220 nM

Question: And the “MIC” value (Citrobacter freundii)?
Answer: 2 µg/mL

Question: With `O=C(NCc1ccccc1)N1CC[C@@H]2[C@H]1C(=O)N2S(=O)(=O)O` [Example 3, (1S,5R)-2-(Benzylcarbamoyl)-7-oxo-2,6-diazabicyclo[3.2.0]heptane-6-sulphonic acid sodium salt] as the compound, how does the IC50 (β-lactamase; [1]) read?
Answer: 330 nM

Question: And the “MIC” value (Citrobacter freundii)?
Answer: 2 µg/mL

Question: `O=C(/C=C/c1ccco1)N1CC[C@@H]2[C@H]1C(=O)N2S(=O)(=O)O` [Example 5(a), (1S,5R)-2-[(E)-3-(2-Furyl)acryloyl-7-oxo-2,6-diazabicyclo[3.20]heptane-6-sulphonic acid sodium salt] was tested. Which IC50 (β-lactamase) did it give?
Answer: 85 nM

Question: And the “MIC” value (Citrobacter freundii)?
Answer: 4 µg/mL

Question: With `N[C@@H](Cc1ccc(O)cc1)C(=O)N1CC[C@@H]2[C@H]1C(=O)N2S(=O)(=O)O` [Example 6(b), (1S,5R)-7-Oxo-2-L-tyrosyl-2,6-diazabicyclo[3.2.0]heptane-6-sulphonic acid] as the compound, how does the IC50 (β-lactamase) read?
Answer: 310 nM

Question: What about the “MIC” value (Citrobacter freundii) of the same compound?
Answer: 4 µg/mL

Question: With `COC1=C(C(=O)O)N2C(=O)C3C2C(C1)CN3C(=O)OC(C)(C)C` [Example 7, (1aS,3aR,6bR)-1,1a,3a,6b-Tetrahydro-5-methoxy-1-oxo-2,6a-diazacyclobuta[cd]indene-2,6(3H,4H)-dicarboxylic acid 2-t-butyl monoester] as the compound, how does the IC50 (β-lactamase; [2]) read?
Answer: 505 nM

Question: And the “MIC” value (Citrobacter freundii)?
Answer: 4 µg/mL

Question: `CC(=O)Oc1ccc(/C=C/C(=O)N2CC[C@@H]3[C@H]2C(=O)N3S(=O)(=O)[O-])cc1OC(C)=O.[Na+]` [Example 13, 4-[(E)-2-[[(1S,5R)-7-Oxo-6-sulpho-2,6-diazabicyclo[3.2.0]heptan-2-yl]carbonyl]vinyl]-o-phenylene diacetate sodium salt] was tested. Which IC50 (β-lactamase; [1]) did it give?
Answer: 63 nM

Question: What about the “MIC” value (Citrobacter freundii) of the same compound?
Answer: 4 µg/mL

Question: Which results are given for `O=C(NCc1ccco1)N1CC[C@@H]2[C@H]1C(=O)N2S(=O)(=O)O` [Example 17(a), (1S,5R)-2-(2-Furan-2-yl-methylcarbamoyl)-7-oxo-2,6-diazabicyclo[3.2.0]heptane-6-sulphonic acid sodium salt]?
Answer: IC50 (β-lactamase): 156 nM; MIC (Citrobacter freundii): 2 µg/mL

Question: `O=C(CCC(=O)N1CC[C@@H]2[C@H]1C(=O)N2S(=O)(=O)O)NOCc1ccco1` [Example 19, sodium salt] was tested. Which IC50 (β-lactamase; [1]) did it give?
Answer: 430 nM

Question: And the “MIC” value (Citrobacter freundii)?
Answer: 2 µg/mL

Question: With `O=C(CS(=O)(=O)c1ccc(O)c(O)c1)N1CC[C@@H]2[C@H]1C(=O)N2S(=O)(=O)O` [Example 20, (1S,5R)-2-[[(3,4-Dihydroxyphenyl)sulphonyl]acetyl]-7-oxo-2,6-diazabicyclo[3.2.0]heptane-6-sulphonic acid sodium salt] as the compound, how does the IC50 (β-lactamase; [1]) read?
Answer: 165 nM

Question: What about the “MIC” value (Citrobacter freundii) of the same compound?
Answer: 4 µg/mL

Question: How did the IC50 (β-lactamase; [2]) turn out when `N[C@@H](C(=O)N1CC[C@@H]2[C@H]1C(=O)N2S(=O)(=O)O)c1ccc(O)c(O)c1.[Na]` [Example 21, (1S,5R)-2-[(R,S)-Amino-(3,4-dihydroxyphenyl)acetyl]-7-oxo-2,6-diazabicyclo[3.2.0]heptane-6-sulphonic acid sodium salt] was run?
Answer: 695 nM

Question: What about the “MIC” value (Citrobacter freundii) of the same compound?
Answer: 4 µg/mL

Question: Which results are given for “(1S,5R)-2-[(2-Amino-4-thiazolyl)acetyl]-7-oxo-2,6-diazabicyclo[3.2.0]heptane-6-sulphonic acid triethylamine salt [6(o)]”?
Answer: IC50 (β-lactamase; [2]): 350 nM; MIC (Citrobacter freundii): 2 µg/mL

Question: Which IC50 (β-lactamase; [2]) does the source give for “Mixture of (1S,5R)-2-(5-Amino-1H-tetrazol-1-ylacetyl) and (1S,5R)-2-(5-Amino-2H-tetrazol-2-ylacetyl)-7-oxo-2,6-diazabicyclo[3.2.0]heptane-6-sulfonic acid sodium salt (1:2) [23(k)]” here?
Answer: 273 nM

Question: What about the “MIC” value (Citrobacter freundii) of the same compound?
Answer: 2 µg/mL

Question: Which results are given for “Mixture of (1S,5R)-2-[(E)-3-(1-Methyl-3- and -4- or -3- and -5- or -4- and -5-sulfo-pyrrol-2-yl)acryloyl]-7-oxo-2,6-diazabicyclo[3.2.0]heptane-6-sulfonic acid sodium salt (1:2) [23(j)]”?
Answer: IC50 (β-lactamase; [2]): 38 nM; MIC (Citrobacter freundii): 1 µg/mL
